# In patent publication US20230220443A1, “CHARACTERIZATION OF S-ADENOSYL-L-METHIONINE-CONSUMING ENZYMES WITH 1-STEP EZ-MTASE: A UNIVERSAL COUPLED-ASSAY” (ALBERT EINSTEIN COLLEGE OF MEDICINE, priority 2017, published 2023):
# “Also recorded” adds a separate entry of the source. Like-named read-outs stand apart in the source and are kept apart here.
# Key:
# [1] = target: T1, TbPRMT7 (Trypanosoma brucei brucei, UniProt Q582G4); experiment: 1-Step EZ-MTase UV-based coupled assay, TbPRMT7 kinetics (incl. ionic strength); assay type: biochemical; details: for Km / kcat: pH=7.60, 25 mM phosphate, co-substrate saturating
# T1 construct: made in house
# T1 sequence (Q582G4 whole entry): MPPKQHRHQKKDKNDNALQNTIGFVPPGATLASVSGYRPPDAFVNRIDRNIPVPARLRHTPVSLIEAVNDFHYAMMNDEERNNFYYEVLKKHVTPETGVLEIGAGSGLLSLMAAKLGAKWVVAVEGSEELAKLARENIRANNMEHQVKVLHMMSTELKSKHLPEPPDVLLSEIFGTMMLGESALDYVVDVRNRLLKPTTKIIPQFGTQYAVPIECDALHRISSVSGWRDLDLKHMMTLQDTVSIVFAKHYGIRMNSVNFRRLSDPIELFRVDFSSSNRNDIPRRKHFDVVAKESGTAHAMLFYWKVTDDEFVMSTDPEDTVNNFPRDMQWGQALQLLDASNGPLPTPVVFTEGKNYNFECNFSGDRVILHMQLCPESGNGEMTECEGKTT
# Procedure: Briefly, the 250-μL reaction mixtures from a same row contained 25 mM phosphate buffer pH=7.60, 1 mM βME, 10% glycerol, 4 μM coupling deaminase TM0936, 1.0 μM TbPRMT7 and various peptide concentrations (16.6-243.3 μM; in the first well, peptide acceptor was omitted to account for background signal—natural decomposition of SAM). Reactions started upon addition of SAM (25.8 μM saturating final concentration) and absorbance was recorded. […] Fit to the Michaelis-Menten model (Eq. 5) provided corresponding kinetic parameters:
# Briefly, the measurements consisted of two experimental subsets: MTase reactions (both SAM and peptide added) and MTase blanks (SAM was added without peptide to account for natural SAM decomposition). The 250-μL reaction mixtures from a same row contained 25 mM phosphate buffer pH=7.60, 1 mM βME, 10% glycerol, 4 μM coupling deaminase TM0936, 402 nM TbPRMT7 and various SAM concentrations (1.53-20.0 μM). […] Initial rates were first corrected for background signal, then plotted against SAM concentrations and fitted to the Morrison kinetic model to yield corresponding kinetic parameters.
# (§1) Kinetic behavior for 8-aza-SAM against MTases (acceptor sat.)—Briefly, kinetic parameters were determined at 20° C. in a UV-Star 96-well flat bottom plate (Greiner Bio-One, #655801) by continuous monitoring of absorbance at 282 nm using a SpectraMax M5 instrument (Molecular Devices). As for SAM experiments, the measurements consisted of two experimental subsets: MTase reactions (both 8-aza-SAM and acceptor added) and MTase blanks (8-aza-SAM was added without acceptor to account for natural 8-aza-SAM decomposition). The 250-μL (60-μL) reaction mixtures from a same row contained 50 mM phosphate buffer pH=7.60 (7.80), 1 mM βME, 10% glycerol (5% glycerol, 100 μM MgCl2), 4 μM coupling deaminase TM0936, either 1.5 μM CePRMT5 or 402 nM TbPRMT7 (or 610 nM GsSDMT) and various 8-aza-SAM concentrations. […] Initial rates were first corrected for background signal, then plotted against 8-aza-SAM concentrations and fitted to the Michaelis-Menten equation to yield corresponding kinetic parameters. The kinetic data from CePRMT5 were fit to the following Eq. 6 to reflect substrate inhibition observed at higher 8-aza-SAM concentration:
# Experiments were conducted following TbPRMT7 protocol above. Briefly, the 250-μL reaction mixtures from a same row contained either 25, 50, 75 or 100 mM phosphate buffer pH=7.60, 1 mM βME, 10% glycerol, 4 μM coupling deaminase TM0936, 1.0 μM TbPRMT7 and various peptide concentrations (16.6-243.3 μM; in the first well, peptide acceptor was omitted to account for background signal—natural decomposition of SAM). Reactions started upon addition of SAM (25.8 μM saturating final concentration) and absorbance was recorded. […] The four fits to the Michaelis-Menten equation (kcat fixed at 29 h^−1) provided corresponding Km values and established impact of ionic strength onto this kinetic parameter.
# [2] = target: T2, NcDIM-5 (Neurospora crassa, UniProt Q8X225); assay type: biochemical
# T2 construct: GST; made in house
# T2 sequence (Q8X225 1-331): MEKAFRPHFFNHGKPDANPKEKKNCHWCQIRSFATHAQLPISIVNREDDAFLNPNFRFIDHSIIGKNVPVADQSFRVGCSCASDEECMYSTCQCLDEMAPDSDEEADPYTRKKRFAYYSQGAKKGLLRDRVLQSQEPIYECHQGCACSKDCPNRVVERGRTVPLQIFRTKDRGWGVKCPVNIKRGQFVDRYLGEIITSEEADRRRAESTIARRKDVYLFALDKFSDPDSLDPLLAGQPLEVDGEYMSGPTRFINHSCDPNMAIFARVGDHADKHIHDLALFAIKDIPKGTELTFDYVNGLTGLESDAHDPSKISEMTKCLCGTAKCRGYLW
# Procedure: Kinetic behavior for peptide H3(1-53) against NcDIM-S(SAM sat.)—Experiments were conducted following matching CePRMT5 protocol above. Briefly, the 250-μL reaction mixtures from a same row contained 25 mM glycine buffer pH=9.50, 1 mM βME, 10% glycerol, 50 mM NaCl, 4 μM coupling deaminase TM0936, 7.6 nM NcDIM-5 and various peptide concentrations (0.51-12.68 μM; in the first well, peptide acceptor was omitted to account for background signal—natural decomposition of SAM). Reactions started upon addition of SAM (25.8 μM saturating final concentration) and absorbance was recorded. Initial rates were first corrected for background signal, then plotted against H3(1-53) concentrations. Fit to the Michaelis-Menten equation provided corresponding kinetic parameters.
# as §1, with “parameters.” for “parameters. The kinetic data from CePRMT5 were fit to the following Eq. 6 to reflect substrate inhibition observed at higher 8-aza-SAM concentration:”
# where [MTase] and [8-aza-SAM] are the total concentration of methyltransferase and methyl donor, respectively; Km is the Michaelis constant, Kf is the substrate inhibition constant and kcat is the turnover for 8-aza-SAM substrate.
# [3] = target: T2, NcDIM-5; details: literature values; cited from earlier work
# [4] = pH=9.50, 25 μM SAM, 7.6 nM NcDIM-5
smiles,measurement,setting,value
"C[S+](CC[C@H](N)C(=O)O)C[C@H]1O[C@@H](n2nnc3c(N)ncnc32)[C@H](O)[C@@H]1O (stereo partly drawn) [8-aza-SAM, S-8-aza-adenosyl-L-methionine]",substrate inhibition (inhibitory behavior of the analog),[1],not observed
same,Km,[1],15.3 ± 0.7 µM
same,kcat,[1],0.00639 ± 0.00011 s⁻¹
same,acceptance of cofactor analog as substrate,[2],unable to accept; also recorded: unable to process
same,Km,[2]; [4],NOT A
same,kcat,[2]; [4],NOT A
"C[S+](CC[C@H](N)C(=O)O)C[C@H]1O[C@@H](n2cnc3c(N)ncnc32)[C@H](O)[C@@H]1O (stereo partly drawn) [SAM, S-adenosyl-L-methionine]",Km,[3],0.68 ± 0.2 µM
same,kcat,[3],0.000861 s⁻¹
same,Km,[1],1.1 ± 0.2 µM
same,kcat,[1],0.00619 ± 0.00017 s⁻¹
